Data as given in patent US20140051661A1, “NOVEL LIPOGENIC INHIBITORS AND USES THEREOF” (The Texas A&M University System, priority 2011, published 2014).

What was measured:
[1] = tested on: fatty acid synthase (FAS) mRNA; experiment: FAS mRNA levels in HepG2 cells by quantitative RT-PCR; format: cell-based, human; conditions: 30 μM (0.03 mM) compound, 6 hours, qRT-PCR
Description: (§1) HepG2, HEK293 cells, and MEFs were cultured at 37° C. and 5% CO2 in Dulbecco's modified Eagle's medium (DMEM; Sigma), supplemented with […] of penicillin-streptomycin (GIBCO-BRL), 10% (or otherwise indicated) fetal bovine serum (Hyclone), and 20 mM Glutamine.
(§2) Total RNA was extracted from cells with Trizol (Invitrogen, Carlsbad, Calif.) and quantified with an Agilent 2100 Bioanalyzer (Agilent Technologies, Santa Clara, Calif.). For mRNA quantification, 2 ug of RNA was converted to cDNA with a High Capacity cDNA Reverse Transcription kit (Applied Biosystems, Foster City, Calif.), and transcript levels of relevant genes were determined by real-time, quantitative PCR with an ABI 7300 Real Time PCR machine according to the manufacturers instructions.
(§3) HepG2 and FAO cells as well as primary rat hepatocytes were cultured at 37° C. and 5% CO2 in Dulbecco's modified Eagle's medium (DMEM; Sigma, St. Louis, Mo.), supplemented with […] of penicillin-streptomycin (P/S, GIBCO-BRL), 10% fetal bovine serum (FBS, Hyclone) and 20 mM glutamine. Primary rat hepatocytes were isolated using a method as described previously (20), and plated onto collagen-coated 6-cm dishes (3×10^6 cell/dish) in DMEM containing 10% FBS; […] P/S, 20 mM glutamine, 100 nM insulin and 1 μM dexamethasone. After 4 hours of culture, non-adherent cells were washed away with 1×PBS. The remaining hepatocytes were cultured or treated in regular DMEM medium.
(§4) Total RNA was extracted from cells with Trizol (Invitrogen, Life Technologies, Carlsbad, Calif.) and quantified with an Agilent 2100 Bioanalyzer. For mRNA quantification, 2 μg of RNA was converted to cDNA with a High Capacity cDNA Reverse. Transcription kit (Applied Biosystems, Foster City, Calif.), and transcript levels of relevant genes were determined by real-time, quantitative PCR with an ABI 7300 Real Time PCR machine according to the manufacturer's instructions. (PCR primer information is available upon request)

[2] = tested on: HMG-CoA reductase (HMGCR) mRNA; experiment: HMG-CoA reductase mRNA levels in HepG2 cells by quantitative RT-PCR; format: cell-based, human; conditions: 6 hours; for HMG-CoA reductase mRNA levels: 0.03 mM compound
Description: as §1, §2, §3, §4

HepG2 cells [3] = experiment: Cytotoxicity in HepG2 cells; format: cell-based, human; conditions: data not shown
293 cells = experiment: Cytotoxicity in 293 cells; format: cell-based; conditions: 0.1 mM BF-102; data not shown
HepG2 cells [4] = experiment: Palmitate synthesis in HepG2 cells (deuterated water GC/MS); format: cell-based, human; conditions: HepG2 cells as printed
Description: (§5) Quantitative measurement of fatty acids and cholesterol synthesis Fatty acids and cholesterol synthesis rate was determined using the deuterated water—GC/MS method as described previously.

HepG2 cells [5] = experiment: Cholesterol synthesis in HepG2 cells (deuterated water GC/MS); format: cell-based, human; conditions: 20 μM, 12 hours
Description: as §5

FAO cells [6] = experiment: Palmitate synthesis rate in FAO cells (deuterium enrichment, GC/MS); format: cell-based, rat; conditions: 20 μM, 12 hours, 100 nM insulin
Description: as §3, with “medium. Fatty acids and cholesterol synthesis rate was, determined using the deuterium enrichment method followed by GC/MS analysis. Briefly, cells were cultured in regular DMEM medium containing 10% 2H2O for 18 hours. Fatty acids and cholesterol were purified by extraction with organic solvents chloroform/methanol and quantitatively measured by GC/MS. The synthesis rates were presented as the percentage of ^2H-containing palmitate or cholesterol in total amount of palmitate or cholesterol.” for “medium.”

FAO cells [7] = experiment: Cholesterol synthesis rate in FAO cells (deuterium enrichment, GC/MS); format: cell-based, rat; conditions: 20 μM, 12 hours, 100 nM insulin
Description: as §3, with “medium. Fatty acids and cholesterol synthesis rate was, determined using the deuterium enrichment method followed by GC/MS analysis. Briefly, cells were cultured in regular DMEM medium containing 10% 2H2O for 18 hours. Fatty acids and cholesterol were purified by extraction with organic solvents chloroform/methanol and quantitatively measured by GC/MS. The synthesis rates were presented as the percentage of ^2H-containing palmitate or cholesterol in total amount of palmitate or cholesterol.” for “medium.”

[8] = Toxic responses in mice under standard chow, osmotic pumps; format: in vivo; conditions: one week, total of 0.6 mg/g body weight by osmotic pumps
HMGCR mRNA = experiment: Hepatic HMGCR mRNA in HFD-fed mice by qRT-PCR; format: in vivo, C57BL/6J mice; conditions: 0.3 mg/g body weight, 1 week, osmotic pumps
Description: (§6) Male C57BI/6J mice were purchased from The Jackson Laboratory at 8 weeks of age and were rendered insulin resistant by feeding an HFD (60% kcal from fat; D12492, Research Diets) for 4 weeks. Then the treatment with BF-102 or BF175 was performed for 1 week (osmotic pumps) or several weeks (in HFD).
as §4

FAS mRNA = experiment: Hepatic FAS mRNA in HFD-fed mice by qRT-PCR; format: in vivo, C57BL/6J mice; conditions: 0.3 mg/g body weight, 1 week, osmotic pumps
Description: as §6, §4

Row | Structure (SMILES) | FAS mRNA levels [1] | FAS mRNA levels ([1]; listed as BF-02) | HMG-CoA reductase mRNA levels [2] | mRNA levels of HMGCR, dose dependence ([2]; indicated concentrations) | cytotoxicity in HepG2 cells (HepG2 cells [3]; 0.1 mM BF-102) | toxicity to HepG2 cells (HepG2 cells [3]; at the doses used) | cytotoxicity in 293 cells (293 cells) | palmitate synthesis (HepG2 cells [4]) | cholesterol synthesis (HepG2 cells [5]) | synthesis rate of palmitate (FAO cells [6]) | synthesis rate of cholesterol (FAO cells [7]) | toxic responses [8] | reduction of hepatic mRNA levels of HMGCR vs DMSO controls (HMGCR mRNA) | hepatic FAS mRNA levels (FAS mRNA)
1 | CC1(C)OB(c2ccc(C=Cc3ccc(O)cc3)cc2)OC1(C)C [BF-102, 4-{2-[4-(4,4,5,5-Tetramethyl-[1,3,2]dioxaborolan-2-yl)-phenyl]-vinyl}-phenol] | strong inhibition | significant decrease | strong inhibition | dose-dependently decrease | no significant cytotoxicity | not toxic | no significant cytotoxicity | inhibits | inhibits | significantly decrease | dramatically decrease | no apparent toxic responses | ~5 fold | significantly down regulated
2 | CC1(C)OB(c2ccc(C=Cc3cc(Cl)cc(Cl)c3)cc2)OC1(C)C [MD131, 3,5-dichloro-4/-(4,4,5,5-Tetramethyl-1,3,2-dioxaborolan-2-yl)stilbene] | strong inhibition |  | strong inhibition |  |  |  |  |  |  |  |  |  |  | 
